From US6280760A, “Peptide-coated implants and methods for producing same” (Merck Patent Gesellschaft mit beschraenkter Haftung, priority 1997, dated 2001)
One block for each molecule: values may come before it.

Columns and labels:
primary rat osteoblasts = assay: Adhesion of primary rat osteoblasts to BSA-pretreated polystyrene surfaces coated with thiol-RGD peptides via sulpho-SMPB; type: cell-based; conditions: 48,000 cells/cm^2, 1 hour
Experimental: (§1) The covalent coupling of the peptides according to the invention with sulphosuccinimidyl 4-(p-maleimidophenyl)butyrate (sulpho-SMPB) to culture surfaces of polystyrene precoated with bovine serum albumin (BSA) was accomplished following the established processes of Singer et al., 1987, J. Cell. Biol. 104: 573, or of Ruoslahti et al. (1982, Methods. Enzymol., 82: 803-831).
(§2) To do this, 48-well plates (Costar, "non-tissue culture treated", Art. No. 3547) were each coated with 250 μl of PBS (phosphate-buffered saline), pH=8.3, 2% BSA, per well and incubated overnight at room temperature in order to generate a BSA layer on the polystyrene. The plates were then washed with 250 μl of PBS, pH=8.3, per well and incubated at room temperature for 1 hour with 250 μl each of a solution containing 100 μg/ml of SMPB in PBS, pH 8.3. Washing of the wells was then carried out three times using 250 μl of PBS, pH 8.3, each time. For the preparation of the coating solutions, the appropriate thiol-RGD peptide was prepared in the following final concentrations in PBS, pH 8.3: 1 nM, 10 nM, 100 nM, 1 μM, 10 μM, 100 μM and 1 mM. […]
(§3) The quantification of the adhered cells was carried out indirectly via the activity determination of the cellular enzyme N-acetylhexosaminidase using an appropriate standard curve according to the method of Landegren (1984, J. Immunol. Methods, 67: 379-388).

[1] = test system: primary human osteoblasts; assay: Adhesion of primary human osteoblasts to BSA-pretreated polystyrene surfaces coated with thiol-RGD peptides via sulpho-SMPB; type: cell-based; conditions: 48,000 cells/cm^2, 1 hour
Experimental: as §1, §2, §3

[2] = test system: human melanoma cell line M21L; assay: Adhesion of alphav beta3-/alphav beta5-negative control cells M21L to thiolpeptide-coated BSA-polystyrene surfaces; type: cell-based; conditions: BSA-pretreated polystyrene coated with thiolpeptide
Experimental: as §1, §2, §3

osteoblast cultures = assay: Adhesion of the different osteoblast cell species to thiolpeptide-coated BSA-polystyrene surfaces (statements over all cultures); type: cell-based, mouse, human, rat; conditions: all osteoblast cultures employed
Experimental: as §1, §2, §3

MC3T3 H1 osteoblasts [3] = assay: Adhesion of MC3T3 H1 osteoblasts to BSA-pretreated polystyrene surfaces coated with thiol-RGD peptides via sulpho-SMPB; type: cell-based, mouse; conditions: for stimulation of the adhesion of cultured mouse MC3T3 H1 osteoblasts: BSA-pretreated polystyrene, peptide coupled via sulpho-SMPB, FIG. 2
Experimental: as §1
To do this, 48-well plates (Costar, "non-tissue culture treated", Art. No. 3547) were each coated with 250 μl of PBS (phosphate-buffered saline), pH=8.3, 2% BSA, per well and incubated overnight at room temperature in order to generate a BSA layer on the polystyrene. The plates were then washed with 250 μl of PBS, pH=8.3, per well and incubated at room temperature for 1 hour with 250 μl each of a solution containing 100 μg/ml of SMPB in PBS, pH 8.3. Washing of the wells was then carried out three times using 250 μl of PBS, pH 8.3, each time. For the preparation of the coating solutions, the appropriate thiol-RGD peptide was prepared in the following final concentrations in PBS, pH 8.3: 1 nM, 10 nM, 100 nM, 1 μM, 10 μM, 100 μM and 1 mM. After addition of 250 μl each of coating solution/well, the plates were incubated at room temperature overnight and then washed three times with PBS, pH 8.3. By addition of 250 μl each of a 5% strength BSA solution in PBS, pH 7.4, subsequent incubation for 2 hours at room temperature and washing with PBS, pH 7.4, non-specific cell-binding sites were blocked. Polystyrene surfaces, which from the coating were treated with a 5% strength BSA solution identically to the positive samples, functioned as negative coating controls. The adhesion of four cell cultures which were obtained from three different species was then investigated on the abovementioned surfaces coated with RGD peptide:
osteoblast cell line MC3T3 H1, obtained from the calvaria of neonatal mice (Heermeier et al., 1995, Cells and Materials, 5: 309-321), and
The cell species described were inoculated with an inoculation density of 48,000 cells/cm^2 into, as described above, Costar-48 well plates coated with RGD peptide, and then incubated for 1 hour at 37° C., 95% atmospheric humidity and 5% CO2. Cells unadhered during the experiment were then washed off twice with PBS, pH 7.4.
as §3

[4] = test system: primary human osteoprogenitor cells; assay: Adhesion of primary human osteoprogenitor cells to BSA-pretreated polystyrene surfaces coated with thiol-RGD peptides via sulpho-SMPB; type: cell-based; conditions: 48,000 cells/cm^2, 1 hour
Experimental: as §1, §2, §3

osteoblast cell cultures = assay: Inhibition of osteoblast binding to thiolpeptide 1-coated surfaces by dissolved cyclic RGDfK in the adhesion medium; type: cell-based, mouse, human, rat; conditions: dissolved peptide in the adhesion medium; coating 10 μM; FIG. 4
Experimental: FIG. 4: Adhesion of osteoblasts to test surfaces coated with thiolpeptide 1-SMPP derivative (10 μM in the coating solution) (see FIG. 2)
x axis: Concentration of dissolved cyclo-RGDfK (without molecular anchor) in the adhesion medium (μM),
as §2, with “mM. After addition of 250 μl each of coating solution/well, the plates were incubated at room temperature overnight and then washed three times with PBS, pH 8.3.” for “mM.”
as §3

MC3T3 H1 osteoblasts [5] = assay: Adhesion of MC3T3 H1 osteoblasts to PMMA moulded articles coated with acrylate RGD peptides; type: cell-based, mouse
Experimental: For the covalent coupling of these peptides to polymerized PMMA (polymethyl methacrylate) surfaces, appropriate shaped articles of differing porosity (diameter: 10 mm; height: 2 mm) were prepared from three different PMMA components.
Bone cement based on PMMA (Merck KGaA, Germany, Licence No. 5181.00.00) corresponding to the product description (40 g of powder+20 ml of liquid).
10 g of PMMA/PHEMA (polyhydroxyethyl methacrylate) granules, particle size 0.5-0.6 mm (Biomet) were mixed with 1.3 ml of an HEMA solution (68.6% HEMA, 29.4% TEGMA [triethylene glycol dimethacrylate], 2% tBPB, [tert-butyl peroxybenzoate]) and adhered by means of this to a porous support material.
10 g of PMMA granules (Plex Y7H, Rohm, Germany), particle fraction 0.7-2 mm were mixed with 1.5 ml of a methyl methacrylate (MMA) solution (68.6% MMA, 29.4% TEGMA, 2% tBPB) and adhered by this means to a porous support material.
For the covalent coupling of the acrylate peptides to the prepolymerized PMMA moulded articles, stock solutions of the acrylate peptides 1, 2, 3 and 4 were prepared in a final concentration of 100 μM in each case in DMSO/0.2% camphorquinone (w/v). Then, by dilution with isopropanol/0.2% camphorquinone (w/v), concentration series having final peptide concentrations of 0.1 nM, 1 nM, 10 nM, 100 nM, 1 μM and 10 μM in each case were prepared. The moulded articles were incubated in daylight and at room temperature for 2 hours and then stored at 4° C. in the dry state. Before use, the samples were washed with PBS, pH 7.4, to remove unbound peptides and stored at 4° C. in PBS, pH 7.4, overnight.
By addition of 250 μl/moulded article each of a 5% strength BSA solution in PBS, pH 7.4, and subsequent incubation for 2 hours at room temperature and washing once with PBS, pH 7.4, non-specific cell-binding sites were blocked.
Subsequently, the adhesion of osteoblasts of the MC3T3 H1 line, obtained from the calvaria of neonatal mice (Heermeier et al., 1995, Cells and Materials 5: 309-321) to the above-described peptide-coated surfaces was investigated.
The MC3T3 H1 osteoblasts were inoculated at an inoculation density of 48,000 cells/cm^2, as described above, in Costar 48-well plates, with PMMA moulded articles coated with RGD peptide and then incubated for 1 hour at 37° C., 95% atmospheric humidity and 5% CO2. Cells non-adhered during the experiment were then washed off twice with PBS, pH 7.4.
as §3

Molecule: cyclo-RGDfK NH--CO--CH2 --CH2 --S-- (sulpho-SMPB) [thiolpeptide 1-(sulpho-SMPB) derivative]
maximum adsorption rate (of the inoculated cells) (primary rat osteoblasts): about 70% | maximum adsorption rate (of the inoculated cells) [1]: about 80% | cell adhesion of alphav beta3-/alphav beta5-negative control cells (M21L) [2]: do not show any significant cell adhesion | cell adsorption rates raised compared with 5% BSA-coated surfaces (osteoblast cultures): 20-40 fold | stimulation of the adhesion of cultured mouse MC3T3 H1 osteoblasts (MC3T3 H1 osteoblasts [3]): strong and dose-dependent stimulation | maximum adsorption rate (of the inoculated cells) (MC3T3 H1 osteoblasts [3]; MC3T3 H1 mouse osteoblasts, 48,000 cells/cm^2, 1 hour): 90-100% | maximum adsorption rate (of the inoculated cells) [4]: about 80%

Molecule: N=C(N)NCCC[C@@H]1NC(=O)[C@H](CCCCN)NC(=O)[C@@H](Cc2ccccc2)NC(=O)[C@H](CC(=O)O)NC(=O)CNC1=O [cyclic RGDfK, cyclo-RGDfK (Arg-Gly-Asp-DPhe-Lysine)]
inhibition of osteoblast binding to thiolpeptide 1-sulpho-SMPB derivative-coated surfaces (osteoblast cell cultures): completely inhibited

Molecule: cyclo-RGDvE CO--NH--CH2 --CH2 --CH2 --CH2 --CH2 --CO--NH--CH2 --CH2 --S-- (sulpho SMPB) [thiolpeptide 3-(sulfo-SMPB), reference compound]
stimulation of the adhesion of cultured mouse MC3T3 H1 osteoblasts (MC3T3 H1 osteoblasts [3]): markedly weaker effect

EC50 (MC3T3 H1 osteoblasts [5]; different PMMA moulded articles, read-out: half-maximal cell bindings, RGD peptide concentration in the coating solution): 0.001 to 10 µM
Molecule: cyclo(RGDf[acrylic-ahx-ahx-K]) [acrylate peptide 2]
cell adsorption rates increased in comparison with uncoated surfaces (MC3T3 H1 osteoblasts [5]; bone cement shaped articles, FIG. 8): 5-15 fold | maximal adsorption rates (MC3T3 H1 osteoblasts [5]; different PMMA moulded articles, 48,000 cells/cm^2, 1 hour): 80-100% | cell adsorption rates increased in comparison with uncoated surfaces (MC3T3 H1 osteoblasts [5]; porous PMMA/PHEMA granule shaped articles, FIG. 9): 2-5 fold | cell adsorption rates increased in comparison with uncoated surfaces (MC3T3 H1 osteoblasts [5]; porous Plex Y7H granule shaped articles, FIG. 10): 2-3 fold

Molecule: cyclo-RβADfK-NH--CO--CH2 --CH2 --S-- (sulpho-SMPB) [thiolpeptide control, reference compound]
stimulation of the adhesion of cultured mouse MC3T3 H1 osteoblasts (MC3T3 H1 osteoblasts [3]): no significant effect
